Experimental data: PMC12051030, “Identification of inhibitors of the Salmonella FraB deglycase, a drug target” (FEBS Open Bio, 2025)
“And” between values parts separate entries of the source, which are not always exact repeats. Equal values may be shown once. Read-outs that look alike come from different tables or passages of the source.

Key:
[1] = target: FraB (Salmonella enterica subsp. enterica serovar Typhimurium, UniProt Q8ZLD0); test: Native MS of FraB–inhibitor complexes; format: binding; details: for binding to FraB by native MS (species observed): IST 50 V, E2I/E2I2 = FraB dimer bound to one or two inhibitor copies; for type of FraB–inhibitor interaction (covalent vs noncovalent): decrease in E2I and E2I2 with increasing IST voltage
FraB, sequence (Q8ZLD0 entry or part of it): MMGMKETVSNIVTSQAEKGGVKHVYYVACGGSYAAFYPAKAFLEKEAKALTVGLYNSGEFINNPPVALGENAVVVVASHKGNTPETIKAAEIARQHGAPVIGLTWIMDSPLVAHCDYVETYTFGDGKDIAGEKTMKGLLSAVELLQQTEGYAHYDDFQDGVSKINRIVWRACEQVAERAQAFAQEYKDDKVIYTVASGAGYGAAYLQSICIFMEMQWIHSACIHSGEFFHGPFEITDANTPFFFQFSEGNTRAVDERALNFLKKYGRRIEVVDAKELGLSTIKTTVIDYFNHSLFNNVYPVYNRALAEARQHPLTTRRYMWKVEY
Experimental: For MS analysis, FraB was buffer exchanged into 200 mM ammonium acetate (AmAc) (Sigma‐Aldrich) or 66.7 mM ethylenediaminediacetic acid (EDDA) (Sigma‐Aldrich) using micro Bio‐spin P6 spin columns (Bio‐Rad); AmAc and EDDA concentrations were chosen to ensure the same ionic strength. The pH was adjusted to 7.5 by adding ammonium hydroxide solution (Sigma‐Aldrich). 6‐P‐F‐Asp was diluted with water, while three different inhibitors [3470:A09, 3469:F02, and 3469:N17, all purchased from either ChemDiv (San Diego, CA, USA) or Ambinter (Orléans, France)] were diluted in DMSO. The final concentration of DMSO used in the native MS experiments was 4.8% (v/v) or 1% (v/v) for the compounds obtained from ChemDiv or Ambinter, respectively.
For the characterization of FraB–inhibitor complexes, the protein was diluted into 200 mM AmAc and then mixed with inhibitors to final concentrations of 3 μM FraB and 120 μM inhibitor. After adding the inhibitors, the FraB–inhibitor complex was incubated for 20 min at 20 °C before injecting into the mass spectrometry (MS). For the characterization of FraB–inhibitor–substrate complexes, FraB was diluted into 66.7 mM EDDA, mixed with inhibitors, incubated at 20 °C for 20 min, and subsequently mixed with 6‐P‐F‐Asp. The final concentrations were as follows: 3 μM FraB (monomer concentration), 120 μM inhibitor, and 600 μM 6‐P‐F‐Asp.
Native MS experiments were performed on Thermo Q Exactive ultra high mass range (UHMR) Orbitrap. Samples were introduced into the MS instrument by nano‐electrospray ionization, which using glass capillary tips pulled in‐house using a P‐97 micropipette puller (Sutter Instruments, Novato, CA, USA). Each sample (3–5 μL) was loaded into the tips, and the electrospray voltage was set between 0.6 and 1.0 kV. The mass spectrometer was operated in positive mode using the following tuning settings: Capillary temperature: 200 °C detector optimization: low m/z; ion transfer target: high m/z; in‐source trapping (IST): 50 V, except when applying higher IST to disrupt the FraB–inhibitor interactions; HCD trap gas flow: 5; Resolution: 12 500. Mass spectra were collected after the spray stabilized (typically < 5 min) and then examined using XCalibur 4.1 (Thermo Scientific), and deconvolved using UniDec software.

[2] = target: His6‐FraB (Salmonella FraB deglycase) (Salmonella enterica subsp. enterica serovar Typhimurium, UniProt Q8ZLD0); test: FraB-G6PD coupled assay, IC50 determination; format: biochemical
His6‐FraB (Salmonella FraB deglycase), sequence (Q8ZLD0 entry or part of it): as above
Experimental: The substrate for FraB, 6‐P‐F‐Asp, was synthesized as previously described. FraB activity was monitored as described previously, with the following changes. The final reaction (30 μL) consisted of 25 mM HEPES pH 8 (at 20 °C), 5 mM MgCl2, 0.1 mM ethylene glycol tetraacetic acid (EGTA), 0.5 mM NAD^+, 1 mU G6PD from Leuconostoc mesenteroides (#LS003981; Worthington Biochemicals, Lakewood, NJ, USA), 100 nM His6‐FraB, and 0–3 mM 6‐P‐F‐Asp. The reaction mixture without substrate (29 μL) was added to one well of a 384‐well polystyrene white μClear® microplate (#781095; Greiner Bio‐One, Monroe, NC, USA) and incubated at 37 °C for 2 min, prior to the addition of 1 μL substrate to initiate the reaction. NADH generation was monitored using either absorbance (340 nm) or fluorescence (350 nm excitation, 450 nm emission) and with either an INFINITE M1000 PRO (Tecan, Mannedorf, Switzerland) or Synergy H1 (Biotek, Winooski, VT, USA) plate reader. Absorbance/fluorescence was plotted against time and slopes were obtained by linear regression analyses. These slopes were converted into initial velocities by dividing them by either the absorbance extinction coefficient (ε340 = 6,220 M ^−1·cm^−1) or the molar fluorescence determined based on standard curves obtained in different plate readers (23,646 RFUs·μM ^−1, Tecan; 285,108 RFUs·μM ^−1, Biotek; Fig. S2). These initial velocities (v o) in turn were plotted against [6‐P‐F‐Asp] to obtain Michaelis–Menten curves that were fit to the formula v o = (V max × [S])/(K m + [S]) by Kaleidagraph (Version 4.5.3; Synergy Software, Reading, PA, USA). The activity of recombinant FraB (Fig. S3) was similar to that as reported previously.
For determining the IC50 value of each compound, 26 μL of master mix was added to two rows (48 wells) of a 384‐well Greiner plate followed by 3 μL of inhibitor to four wells per concentration (12 concentrations total) using a single‐channel pipette. After mixing with a 12‐channel pipette, the plate was incubated at 20 °C for 20 min. To initiate the reaction, a 12‐channel pipette was used to add and mix 1 μL of 7.5 mM 6‐P‐F‐Asp to all 48 wells. The final reaction (30 μL) consisted of 25 mM HEPES pH 8.0 at 20 °C, 5 mM MgCl2, 0.1 mM EGTA, 0.5 mM NAD^+, 1 mU G6PD, 100 nM His6‐FraB, 0.25 mM 6‐P‐F‐Asp, and varying concentrations of inhibitor (10% v/v DMSO). NADH fluorescence was monitored every 10 s for 10 min total on a SPARK® multi‐mode multiplate reader (Tecan), as described above, and plotted against time. Slopes of the linear range of each curve were converted to initial velocities, as described above, that were then plotted against (inhibitor). Kaleidagraph was used to fit a sigmoidal curve to each plot using the following formula in order to determine the [IC50]: % inhibition = 100/1 + (IC50/[I]), where I is [inhibitor] [48].

[3] = test system: Salmonella tolC mutant; test: Growth assay, Salmonella tolC mutant in wild‐type or fra island mutant background; format: cell-based; details: early finding; could not be replicated after multiple attempts with stocks from different suppliers (data not shown)
Excerpt: We sought to examine the possibility that some of the hits in the biochemical HTS were not picked up in the cell‐based assays due to efficient efflux mechanisms in Salmonella. Because TolC is an outer membrane protein channel that is essential for the ability of seven of the 10 inner membrane drug‐efflux transporters to expel structurally diverse molecules, we generated a Salmonella tolC mutant and tested the 121 compounds that we purchased (Sabag‐Daigle, A. & Ahmer, B. M. M., unpublished results). The tests were conducted in parallel using the tolC mutant in a wild‐type or fra island mutant background; the latter lacks the entire fra locus and is incapable of catabolizing F‐Asn and forming 6‐P‐F‐Asp. Thus, any inhibitor specific for FraB (and which was being effluxed in the wild‐type) will inhibit the tolC mutant in a wild‐type but not the fra island mutant background. A caveat is that efflux of compounds may also be achieved via TolC‐independent drug‐efflux pumps.

[4] = 0.25 mM 6‐P‐F‐Asp, mean and standard error from two measurements, read-out: IC50
[5] = Trial 1, 0.25 mM 6-P-F-Asp, unit in Fig. S10, read-out: IC50 (curve fit of IC50 plots, Fig. S10)
[6] = Trial 2, 0.25 mM 6-P-F-Asp, unit in Fig. S10, read-out: IC50 (curve fit of IC50 plots, Fig. S10)

| Compound | binding to FraB in the presence of substrate (native MS) ([1]; 3 μM FraB, 120 μM inhibitor, 600 μM 6‐P‐F‐Asp) | binding to FraB by native MS (species observed) ([1]; 3 μM FraB, 120 μM inhibitor) | type of FraB–inhibitor interaction (covalent vs noncovalent) [1] | IC50 ([2]; IC50 (curve fit of IC50 plots, Fig. S10), Trial 1, 0.25 mM 6-P-F-Asp, unit in Fig. S10) [µM] | IC50 ([2]; IC50 (curve fit of IC50 plots, Fig. S10), Trial 2, 0.25 mM 6-P-F-Asp, unit in Fig. S10) [µM] | IC50 ([2]; IC50, 0.25 mM 6‐P‐F‐Asp, mean and standard error from two measurements) [µM] | inhibition of growth of Salmonella tolC, fra‐dependent [3] | IC50 [2, 4] [µM] | IC50 [2, 5] | IC50 [2, 6] |
| --- | --- | --- | --- | --- | --- | --- | --- | --- | --- | --- |
| Fc1ccc(-c2nn3c(-c4ccccn4)nnc3s2)cc1 [3469:N17, 6‐(4‐fluorophenyl)‐3‐pyridin‐2‐yl‐[1,2,4]triazolo[3,4‐b][1,3,4]thiadiazole] | can bind either free enzyme or the enzyme‐substrate complex | distinct peaks corresponding to E2I and E2I2 | noncovalent | 113 | 86.7 | 100 ± 13 | initially shown to inhibit the growth of Salmonella tolC in a fra‐dependent manner | – | – | – |
| O=c1[nH][nH]c(=S)n1Cc1ccccc1 [1533:K12, 4‐benzyl‐5‐sulfanylidene‐1,2,4‐triazolidin‐3‐one] | – | – | – | – | – | – | – | 27.6 ± 3.9 | 31.5 µM | 23.7 µM |
| O=c1sn(-c2ccccc2C(F)(F)F)c(=O)n1CC1CC1 [1524:G12, 4‐(cyclopropylmethyl)‐2‐[2‐(trifluoromethyl)phenyl]‐1,2,4‐thiadiazolidine‐3,5‐dione] | – | – | – | – | – | – | – | 2.8 ± 0.4 | 3.24 µM and 3.2 µM | 2.39 µM and 2.4 µM |
| CC(C)Cc1cc(-c2nn3c(-c4ccccc4Cl)nnc3s2)n[nH]1 [3470:A09, 3‐(2‐chlorophenyl)‐6‐[5‐(2‐methylpropyl)‐1H‐pyrazol‐3‐yl]‐[1,2,4]triazolo[3,4‐b][1,3,4]thiadiazole] | – | distinct peaks corresponding to E2I and E2I2 | noncovalent | – | – | – | initially shown to inhibit the growth of Salmonella tolC in a fra‐dependent manner | 15.4 ± 0.4 | 15.8 µM | 15 µM |
| Cc1cccc(Cl)c1-n1sc(=O)n(CC2CC2)c1=O [1524:E12, 2‐(2‐chloro‐6‐methylphenyl)‐4‐(cyclopropylmethyl)‐1,2,4‐thiadiazolidine‐3,5‐dione] | – | – | – | – | – | – | – | 4.3 | 4.28 µM and 4.3 µM | 4.29 µM and 4.3 µM |
| c1ccc(-c2nnc3sc(C4COc5ccccc5O4)nn23)nc1 (stereo not shown) [3469:F02, 6‐(2,3‐dihydro‐1,4‐benzodioxin‐3‐yl)‐3‐pyridin‐2‐yl‐[1,2,4]triazolo[3,4‐b][1,3,4]thiadiazole] | – | distinct peaks corresponding to E2I and E2I2 | noncovalent | – | – | – | initially shown to inhibit the growth of Salmonella tolC in a fra‐dependent manner | 42 ± 2.6 | 44.5 µM and 44.4 µM | 39.3 µM |
